Data taken from patent US6127339A, “Peptide for binding thereto a low density lipoprotein” (Asahi Kasei Kogyo Kabushiki Kaisha, priority 1995, dated 2000).
No end group written: not given here.

How the values were obtained:
LDL [1] = assay: Staining of peptide-bonded resin with biotinylated LDL in plasma (ABC method); assay type: binding; parameters: key: the peptide-bonded resins which were stained are indicated with "+ (plus)"; the peptide-bonded resins which were not stained are indicated with "- (minus)"; conditions: Table 2, peptide-bonded TG resin, same manner as Example 1
Method: With respect to the adsorbent comprising the water-insoluble carrier having bonded thereto the peptide, as a method for evaluating the binding ability (affinity) of the adsorbent for an LDL, there can be mentioned a method in which, after causing an LDL to be adsorbed on the adsorbent, the adsorbent having the LDL adsorbed thereon is subjected to staining (avidin-biotin complex method, that is, ABC method). Specifically, a biotinylated LDL is added to plasma, and the adsorbent is immersed in the plasma for a predetermined period of time. Then, the adsorbent is taken out of the plasma, and washed. Subsequently, the adsorbent is immersed in a horseradish peroxidase-labeled streptoavidin solution, and a solution of 3,3'-diamino benzidine, which is a substrate for the above-mentioned enzyme (horseradish peroxidase), is added thereto, thereby staining the adsorbent. The binding ability of the adsorbent for LDL is evaluated from the degree of the staining. With respect to methods for evaluating a binding ability for LDL, reference can be made to, for example, the following literature: S. M. Hsu, L. Raine, H. Fanger, J. Histchem. Cytochem., 29, 577 (1981); and H. Towbin, T. Staehelin, J. Gordon, Proc. Natl. Acad. Sci. U.S.A., 76, 4350 (1979).
The ability of each of the peptides to bind thereto an LDL was evaluated as follows. To a blood sample obtained from a healthy person was added a 3.8% aqueous solution of sodium citrate to thereby obtain a mixture. The obtained mixture was centrifuged to separate the blood sample into a blood cells component and a plasma component.
On the other hand, each of the above-mentioned polystyrene resins having bonded thereto the above-synthesized peptides was individually taken out from the synthesis reaction system and packed in a column having a filter (manufactured and sold by Bio-Rad laboratories, U.S.A.). Subsequently, the plasma-LDL mixture prepared above was added to the column, and the column was allowed to stand at room temperature for 1 hour. Then, the column was washed with a physiological saline containing 0.1% Tween 20 and sodium phosphate. After the washing, 1 ml of a horseradish peroxidase-labeled streptoavidine (0.2 ug/ml) solution containing 10% Block Ace (manufacturedand sold by Dainippon Pharmaceutical Co., Ltd., Japan) was added to the column, and the column was allowed to stand at room temperature for 30 minutes. Then, 1 ml of a 3,3'-diaminobenzidine tetrahydrochloride ([…]) solution containing 0.005% hydrogen peroxide was added to the column (by the addition of this solution, when a peptide-bonded resin contained in the column has the LDL bonded thereto, the resin is stained to assume brown color).
Results are shown in Table 1, wherein the peptide-bonded resins which were stained are indicated with "+ (plus)" and the peptide-bonded resins which were not stained are indicated with "- (minus)".
The ability of each of the peptides to bind thereto an LDL was evaluated in substantially the same manner as in Example 1.

LDL [2] = assay: LDL-adsorbing ratio of peptide-bonded resin in LDL solution (decrease of free cholesterol); assay type: binding
[3] = Table 3, peptide-bonded resin 85 mg dry, 1 ml LDL solution 50 μg/ml in PBS
[4] = Table 6, peptide-bonded resin, same manner as Example 4
[5] = Table 4, peptide-bonded resin 85 mg dry, 1 ml LDL solution 50 μg/ml in PBS
[6] = Table 5, D-form and L-form peptides on resin, same manner as Example 4

With “Example 2 Sample 6: pentapeptide N1-N5 = K H I Y W, bonded to TG polystyrene resin (KHIYW; not fully specified; printed as Lys His Ile Tyr Trp)” as the substance, how does the Stain (LDL [1]) read?
The Stain was “+”.

For “Example 2 Sample 7: pentapeptide N1-N5 = W R Y D R, bonded to TG polystyrene resin (WRYDR; not fully specified; printed as Trp Arg Tyr Asp Arg)”, which Stain (LDL [1]) is on record?
Its Stain is “+”.

Which Stain (LDL [1]) does the source give for “Example 2 Sample 8: pentapeptide N1-N5 = L K W F Q, bonded to TG polystyrene resin (LKWFQ; not fully specified; printed as Leu Lys Trp Phe Gln)” here?
Its Stain is “+”.

Which Stain (LDL [1]) does the source give for “Example 2 Sample 9: pentapeptide N1-N5 = Y Y R W F, bonded to TG polystyrene resin (YYRWF; not fully specified; printed as Tyr Tyr Arg Trp Phe)” here?
The Stain was “+”.

For “Example 2 Sample 10: pentapeptide N1-N5 = L W K S F, bonded to TG polystyrene resin (LWKSF; not fully specified; printed as Leu Trp Lys Ser Phe)”, which Stain (LDL [1]) is on record?
Its Stain is “+”.

For “Example 2 Sample 11: pentapeptide N1-N5 = F F W R G, bonded to TG polystyrene resin (FFWRG; not fully specified; printed as Phe Phe Trp Arg Gly)”, which Stain (LDL [1]) is on record?
Its Stain is “+”.

With “Example 2 Sample 12: pentapeptide N1-N5 = L N F R W, bonded to TG polystyrene resin (LNFRW; not fully specified; printed as Leu Asn Phe Arg Trp)” as the substance, how does the Stain (LDL [1]) read?
The Stain was “+”.

“Example 2 Sample 13: pentapeptide N1-N5 = F L M R F, bonded to TG polystyrene resin (FLMRF; not fully specified; printed as Phe Leu Met Arg Phe)” was tested. Which Stain (LDL [1]) did it give?
The Stain was “+”.

How did the Stain (LDL [1]) turn out when “Example 2 Sample 14: pentapeptide N1-N5 = W L M W R, bonded to TG polystyrene resin (WLMWR; not fully specified; printed as Trp Leu Met Trp Arg)” was run?
Its Stain is “+”.

How did the “LDL-adsorbing ratio (%)” value (LDL [2]; [3]) turn out when “FFFFFFGGGGG [comparative peptide bonded to TG polystyrene resin, electric charge 0 or less, reference compound]” was run?
Its value is 2.6%.

How did the “LDL-adsorbing ratio (%)” value (LDL [2]; [3]) turn out when “LFLMR (not fully specified) [peptide bonded to TG polystyrene resin]” was run?
Its value is 39.3%.

How did the “LDL-adsorbing ratio (%)” value (LDL [2]; [3]) turn out when LFLMRGGGGG was run?
The value was 36.9%.

How did the “LDL-adsorbing ratio (%)” value (LDL [2]; [4]) turn out when “WAAAAAR (not fully specified) [peptide bonded to TG polystyrene resin]” was run?
The value was 23.7%.

With “WAAAAR (not fully specified) [peptide bonded to TG polystyrene resin]” as the substance, how does the “LDL-adsorbing ratio (%)” value (LDL [2]; [4]) read?
The value was 26.3%.

For “WAAAR (not fully specified) [peptide bonded to TG polystyrene resin]”, which “LDL-adsorbing ratio (%)” value (LDL [2]; [4]) is on record?
The value was 39.3%.

How did the “LDL-adsorbing ratio (%)” value (LDL [2]; [4]) turn out when “WAAR (not fully specified) [peptide bonded to TG polystyrene resin]” was run?
Its value is 36.3%.

WAR was tested. Which “LDL-adsorbing ratio (%)” value (LDL [2]; [4]) did it give?
The value was 32.3%.

With “WAWEEGGGGG (not fully specified) [comparative peptide bonded to TG polystyrene resin, electric charge 0 or less, reference compound]” as the substance, how does the “LDL-adsorbing ratio (%)” value (LDL [2]; [3]) read?
The value was 4.3%.

Which “LDL-adsorbing ratio (%)” value (LDL [2]; [3]) does the source give for “WAWRR (not fully specified) [peptide bonded to TG polystyrene resin]” here?
Its value is 62.2%.

How did the “LDL-adsorbing ratio (%)” value (LDL [2]; [3]) turn out when “WAWRRGGGGG (not fully specified) [peptide bonded to TG polystyrene resin]” was run?
The value was 49.8%.

For “WFWK (not fully specified) [peptide bonded to TG polystyrene resin]”, which “LDL-adsorbing ratio (%)” value (LDL [2]; [5]) is on record?
The value was 33.0%.

With “WFWKK (not fully specified) [peptide bonded to TG polystyrene resin]” as the substance, how does the “LDL-adsorbing ratio (%)” value (LDL [2]; [5]) read?
The value was 43.0%.

“WFWR (not fully specified) [peptide bonded to TG polystyrene resin]” was tested. Which “LDL-adsorbing ratio (%)” value (LDL [2]; [5]) did it give?
Its value is 35.0%.

With “WFWRR (not fully specified) [peptide bonded to TG polystyrene resin]” as the substance, how does the “LDL-adsorbing ratio (%)” value (LDL [2]; [5]) read?
The value was 49.0%.

What about the “LDL-adsorbing ratio (%)” value (LDL [2]; Table 5, D-form and L-form peptides on resin, same manner as Example 4, listed as WFWRR (L-form)) of the same substance?
The value was 39.1%.

With WFWRR [WFWRR (D-form)] as the substance, how does the “LDL-adsorbing ratio (%)” value (LDL [2]; [6]) read?
Its value is 38.3%.

Which “LDL-adsorbing ratio (%)” value (LDL [2]; [5]) does the source give for WWK here?
Its value is 25.0%.

How did the “LDL-adsorbing ratio (%)” value (LDL [2]; [5]) turn out when WWR was run?
The value was 32.0%.

What about the “LDL-adsorbing ratio (%)” value (LDL [2]; Table 5, D-form and L-form peptides on resin, same manner as Example 4, listed as WWR (L-form)) of the same substance?
Its value is 33.8%.

WWR [WWR (D-form)] was tested. Which “LDL-adsorbing ratio (%)” value (LDL [2]; [6]) did it give?
Its value is 41.6%.

Which “LDL-adsorbing ratio (%)” value (LDL [2]; [6]) does the source give for WWWR [WWWR (D-form)] here?
Its value is 33.8%.

With “WWWR [WWWR (L-form)] (also: L-form) [peptide bonded to TG polystyrene resin]” as the substance, how does the “LDL-adsorbing ratio (%)” value (LDL [2]; [6]) read?
The value was 42.2%.
